“Also recorded” adds a separate entry of the source.
Key:
[1] = ABTS radical cation scavenging assay; conditions: 100 μM
Protocol: For ABTS^+• scavenging experiments, ABTS^+• was generated by oxidizing ABTS using potassium persulfate. All test samples (Trolox [TR; positive material] and 1–15) were used at a final concentration of 100 μM. […] Both compounds share a common catechol structure. […] Similar results were obtained in the DPPH radical scavenging experiment. […] Compounds 4, 9, and 14, bearing a 4-hydroxy-3-methoxyphenyl, scavenged ABTS^+• moderately (23–51%).
3.15. 2,2′-Azino-bis(3-ethylbenzothiazoline-6-sulfonic Acid) (ABTS) Radical Cation Scavenging Assay
The effect of the 2-phenylbenzoxazole compounds 1–15 on radical scavenging was assessed using an ABTS assay, as previously reported. An ABTS aqueous solution (7 mM) was mixed with a K2S2O8 aqueous solution (2.45 mM) in equal volumes (each 20 mL) and incubated in the dark for 20 h at 25 °C to generate ABTS^+•. The ABTS^+• solution was then diluted with pure EtOH to adjust the absorbance of the solution to 0.7 ± 0.02 at 730 nm. The test samples (1–15 and Trolox [positive control]) were dissolved in a co-solvent of EtOH and DMSO (9:1, v/v) to make a 1 mM solution. The diluted ABTS^+• solution was mixed with the test sample solution at a volume ratio of 9:1 (90 μL:10 μL) and the mixture was stored for 2 min at 20 °C in the dark. The optical density was measured at 730 nm using an ELISA reader at 1 min intervals for 10 min. All test samples were used at a final concentration of 100 µM.
ABTS^+• radical scavenging activity (%) = [(ODcon − ODsam)/ODcon] × 100, where ODsam and ODcon represent the absorbances of the test sample and the control, respectively.

zebrafish larvae [2] = assay: Melanin content in zebrafish larvae; format: in vivo, zebrafish (Danio rerio); conditions: compound 8 0.025 mM; kojic acid 20 mM; treated 28 hpf, read 74 hpf
Protocol: (§1) . Zebrafish embryos obtained by natural mating were dechorionated at 24 hpf and treated with compound 8 (0.025 mM) or kojic acid (20 mM) at 28 hpf. After 46 h, the melanin content and tyrosinase activity were determined.
(§2) 3.13. Measurement of Melanin Content and Tyrosinase Activity in Zebrafish Larvae
(§3) The effects of the 2-phenylbenzo[d]oxazole compound 8 on the melanin content and tyrosinase activity in the zebrafish larvae were assessed using a previously defined procedure with minor modifications. To quantify the melanin content in the zebrafish larvae, zebrafish embryos were obtained through natural mating and operated in a similar manner to the in vivo depigmentation experiment (25 zebrafish embryos per well in a 24-well plate; dechorionation at 24 hpf; test sample treatment (8 [0.025 mM] and kojic acid [20 mM; positive control]) at 28 hpf). Melanin quantification and tyrosinase activity were quantified at 74 hpf. For melanin quantification, the zebrafish larvae were lysed in RIPA buffer (Biosesang, Gyeonggi-do, Korea) and homogenized using a sonicator. […] The absorbance was measured at 405 nm using a microplate reader. For the tyrosinase activity measurement, the supernatants were transferred to new Eppendorf tubes and the protein was quantified using a Pierce BCA protein assay kit, with the absorbance being measured at 570 nm using a microplate reader. […]

zebrafish larvae [3] = assay: In vivo depigmentation experiment using zebrafish embryos
Protocol: Zebrafish embryos were used in this study. […] The zebrafish embryos were obtained through natural mating in our laboratory. The chorion of the zebrafish embryos was removed 24 h post-fertilization (hpf).
In Vivo Depigmentation Experiment Using Zebrafish Embryos
A depigmentation experiment was performed using zebrafish embryos, as previously described [38, 49, 50]. Wild-type zebrafish (Danio rerio) were maintained in a fish tank at 28 °C and fed with dried brine shrimp (Artemia salina, San Francisco Bay Brand, San Francisco, CA, USA) three times daily. The zebrafish embryos were obtained through natural mating in mating cages. The obtained zebrafish embryos were transferred to a 90 mm culture dish containing 200 μL of E3-methylene blue (MB) solution, consisting of 0.001% MB, 0.17 mM KCl, 0.33 mM CaCl2, 0.33 mM MgSO4, and 5 mM NaCl, and incubated in an incubator set at 28 °C. At 24 h post-fertilization (hpf), the zebrafish embryos were dechorionated using pronase (Sigma-Aldrich, St. Louis, MO, USA). […] The 48-well plates were incubated in an incubator set at 28 °C for 48 h. At 76 hpf, the zebrafish larvae were mounted on a 1% methylcellulose block after anesthesia with tricaine methanesulfonate (Thermo Fisher Scientific, Waltham, MA, USA), and photographs of the zebrafish larvae were obtained using a SMZ745T stereoscopic microscope (Nikon, Tokyo, Japan). The pigmented areas of the zebrafish larvae were determined using the CS analyzer 3.0 image analysis software (ATTO, Tokyo, Japan).

[4] = tested on: tyrosinase activity in zebrafish larvae; assay: Tyrosinase activity in zebrafish larvae; format: in vivo, zebrafish (Danio rerio); conditions: compound 8 0.025 mM; kojic acid 20 mM; treated 28 hpf, read 74 hpf
Protocol: as §1, §2, §3

[5] = kojic acid 20 mM, compound 8 0.025 mM, compound 13 0.025 and 0.05 mM, 76 hpf

Row | Compound | ABTS+• scavenging activity (% inhibition) [1] [%] | melanin content of zebrafish larvae, vs untreated control (100%) (zebrafish larvae [2]) [%] | toxicity in zebrafish embryos (zebrafish larvae [3]; 0.05 mM) | depigmentation effect on zebrafish larvae (photographs) (zebrafish larvae [3]; [5]) | pigmentation area of zebrafish larvae (CS analyzer) (zebrafish larvae [3]; [5]) | % tyrosinase activity in zebrafish larvae, vs untreated control (100%) [4] [%]
1 | Cc1ccc2nc(-c3ccc(O)cc3O)oc2c1 [Compound 3, 4-(6-Methylbenzo[d]oxazol-2-yl)benzene-1,3-diol] | 57 |  |  |  |  | 
2 | Oc1ccc(-c2nc3ccc(Cl)cc3o2)c(O)c1 [Compound 8, 4-(6-Chlorobenzo[d]oxazol-2-yl)benzene-1,3-diol] | 64 | 35 | weak toxicity | substantially higher depigmentation effects on zebrafish larvae than kojic acid; also recorded: strong potency at 0.025 mM, similar to 13 at 0.05 mM | smallest pigmentation area | 29
3 | Cc1ccc2oc(-c3ccc(O)cc3O)nc2c1 [Compound 13, 4-(5-Methylbenzo[d]oxazol-2-yl)benzene-1,3-diol] | 54 |  |  | substantially higher depigmentation effects on zebrafish larvae than kojic acid; also recorded: significantly stronger depigmentation efficacy than kojic acid |  | 
